From US20070225351A1, “Methods and compositions for controlling body weight and appetite” (priority 2002, published 2007)
Read-outs that look alike come from different tables or passages of the source.

Assay: Toxicokinetic evaluation in dogs
Format: in vivo
Settings: beagle, dog, po; for AUC(0-t): read-out: AUC0-24 h
Experimental: Eighteen male and eighteen female beagle dogs were received from Ridglan Farms, Mt. Horeb, Wis. […] Each group consisted of four males and four females. All animals/sex/group were scheduled for the primary necropsy at the end of the 13-week treatment period.
The animals were observed twice daily for mortality and moribundity. Clinical examinations were performed daily at the time of dosing and approximately 1-2 and approximately 3 hours following dose administration. Detailed physical examinations were performed weekly. Clinical pathology evaluations (hematology, serum chemistry and urinalysis) were performed prior to the initiation of dose administration (study week-1) and prior to the scheduled necropsy (study week 13). Individual body weights were recorded weekly, beginning approximately two weeks prior to test article administration (study week-2). Mean body weights and mean body weight changes were calculated for each corresponding interval. Final body weights (fasted) were recorded prior to the scheduled necropsy. Blood samples for toxicokinetic evaluation were collected from all dogs on study days 0 and 88 at 0, 1, 2, 4, 8 and 24 hours after dose administration. […] Gross lesions were also examined from the 2.0 and 6.0 mg/kg/day groups.

[1] = female, blood, 6 mg/kg/day, female dogs, 6 mg/kg/day oral, Day 0
[2] = female, blood, 6 mg/kg/day, female dogs, 6 mg/kg/day oral, Day 88
[3] = female, blood, 20 mg/kg/day, female dogs, 20 mg/kg/day oral, Day 0
[4] = female, blood, 20 mg/kg/day, female dogs, 20 mg/kg/day oral, Day 88
[5] = female, in vivo, 2 mg/kg/day, female dogs, 2 mg/kg/day oral, Day 0
[6] = female, in vivo, 2 mg/kg/day, female dogs, 2 mg/kg/day oral, Day 88
[7] = male, blood, 2 mg/kg/day, male dogs, 2 mg/kg/day oral, Day 0
[8] = male, blood, 2 mg/kg/day, male dogs, 2 mg/kg/day oral, Day 88
[9] = male, in vivo, 6 mg/kg/day, male dogs, 6 mg/kg/day oral, Day 0
[10] = male, in vivo, 6 mg/kg/day, male dogs, 6 mg/kg/day oral, Day 88
[11] = male, in vivo, 20 mg/kg/day, male dogs, 20 mg/kg/day oral, Day 0
[12] = male, in vivo, 20 mg/kg/day, male dogs, 20 mg/kg/day oral, Day 88

In the case of `Clc1ccc([C@]23CNCC2C3)cc1Cl` (single isomer, unassigned; (+)) [(+)-1-(3,4-dichlorophenyl)-3-azabicyclo[3.1.0]hexane], the Tmax (female, blood, 2 mg/kg/day, female dogs, 2 mg/kg/day oral, Day 0) is reported as 1 h, the Tmax (female, blood, 2 mg/kg/day, female dogs, 2 mg/kg/day oral, Day 88) is reported as 1 h and the Cmax [1] is reported as 5120 ng/mL. For the same molecule, the Tmax [1] was 1 h, the AUC(0-t) [1] was 13600 ng·h/mL and the Cmax [2] was 4850 ng/mL. For the same molecule, the Tmax [2] was 1 h, the Cmax [3] was 9280 ng/mL and the Tmax [3] was 2 h. For the same molecule, the AUC(0-t) [3] was 63600 ng·h/mL, the Cmax [4] was 8430 ng/mL and the Tmax [4] was 1 h. It also gave an AUC(0-t) [4] of 29600 ng·h/mL, a Cmax [5] of 635 ng/mL and an AUC(0-t) [5] of 1470 ng·h/mL. It also gave a Cmax [6] of 663 ng/mL, an AUC(0-t) [6] of 2150 ng·h/mL and an AUC(0-t) (female, in vivo, 6 mg/kg/day, female dogs, 6 mg/kg/day oral, Day 88) of 15900 ng·h/mL. The Cmax [7] was 507 ng/mL, the Tmax [7] was 1 h and the AUC(0-t) [7] was 1570 ng·h/mL. It also gave a Cmax [8] of 753 ng/mL, a Tmax [8] of 1 h and an AUC(0-t) [8] of 2280 ng·h/mL. The Cmax [9] was 4640 ng/mL, the Tmax [9] was 1 h and the AUC(0-t) [9] was 12800 ng·h/mL. It also gave a Cmax [10] of 4140 ng/mL, a Tmax [10] of 1 h and an AUC(0-t) [10] of 13100 ng·h/mL. For the same molecule, the Cmax [11] was 11400 ng/mL, the Tmax [11] was 1 h and the AUC(0-t) [11] was 47800 ng·h/mL. It also gave a Cmax [12] of 7230 ng/mL, a Tmax [12] of 1 h and an AUC(0-t) [12] of 44000 ng·h/mL.
